This note sets out measurements from PubChem BioAssay AID1259407 (Chemical Carcinogenesis Research Information System (CCRIS), 2018).

This series relates to CCRIS mutagenicity, Ames/micronucleus/aberration tests. Description: CCRIS mutagenicity studies.
[1] abbreviates: Test System: AMES SALMONELLA TYPHIMURIUM, Strain/Indicator: TA98, Metabolic Activation: NONE, Method: STANDARD PLATE.
The mark [2] stands for this setting: Test System: AMES SALMONELLA TYPHIMURIUM, Strain/Indicator: TA98, Metabolic Activation: RAT, LIVER, S-9, AROCLOR 1254, Method: STANDARD PLATE.
Setting [3] is: Test System: AMES SALMONELLA TYPHIMURIUM, Strain/Indicator: TA100, Metabolic Activation: NONE, Method: STANDARD PLATE.
Where [4] appears, read: Test System: AMES SALMONELLA TYPHIMURIUM, Strain/Indicator: TA100, Metabolic Activation: RAT, LIVER, S-9, AROCLOR 1254, Method: STANDARD PLATE.
The mark [5] stands for this setting: Test System: AMES SALMONELLA TYPHIMURIUM, Strain/Indicator: TA1535, Metabolic Activation: NONE, Method: STANDARD PLATE.
The mark [6] stands for this setting: Test System: AMES SALMONELLA TYPHIMURIUM, Strain/Indicator: TA1535, Metabolic Activation: RAT, LIVER, S-9, AROCLOR 1254, Method: STANDARD PLATE.
Where [7] appears, read: Test System: AMES SALMONELLA TYPHIMURIUM, Strain/Indicator: TA1537, Metabolic Activation: NONE, Method: STANDARD PLATE.
The mark [8] stands for this setting: Test System: AMES SALMONELLA TYPHIMURIUM, Strain/Indicator: TA1537, Metabolic Activation: RAT, LIVER, S-9, AROCLOR 1254, Method: STANDARD PLATE.
The mark [9] stands for this setting: Test System: AMES SALMONELLA TYPHIMURIUM, Strain/Indicator: TA1538, Metabolic Activation: NONE, Method: STANDARD PLATE.

The source made the active and inactive calls. The rule behind the calls is not given here.

For `C=C(C)C(=O)OCCCCOC(=O)C(=C)C`, the mutagenic call runs as follows: under setting [1], “inactive; negative”; under setting [2], “inactive; negative”; (Test System: AMES SALMONELLA TYPHIMURIUM, Strain/Indicator: TA98, Metabolic Activation: RAT, LIVER, S-9, SODIUM PHENOBARBITAL, Method: STANDARD PLATE) “inactive; negative”; under setting [3], “inactive; negative”; under setting [4], “inactive; negative”; (Test System: AMES SALMONELLA TYPHIMURIUM, Strain/Indicator: TA100, Metabolic Activation: RAT, LIVER, S-9, SODIUM PHENOBARBITAL, Method: STANDARD PLATE) “inactive; negative”. Also, the mutagenic call runs as follows: under setting [5], “inactive; negative”; under setting [6], “inactive; negative”; (Test System: AMES SALMONELLA TYPHIMURIUM, Strain/Indicator: TA1535, Metabolic Activation: RAT, LIVER, S-9, SODIUM PHENOBARBITAL, Method: STANDARD PLATE) “inactive; negative”; under setting [7], “inactive; negative”; under setting [8], “inactive; negative”; (Test System: AMES SALMONELLA TYPHIMURIUM, Strain/Indicator: TA1537, Metabolic Activation: RAT, LIVER, S-9, SODIUM PHENOBARBITAL, Method: STANDARD PLATE) “inactive; negative”. The mutagenic call by setting is: under setting [9], “inactive; negative”; (Test System: AMES SALMONELLA TYPHIMURIUM, Strain/Indicator: TA1538, Metabolic Activation: RAT, LIVER, S-9, AROCLOR 1254, Method: STANDARD PLATE) “inactive; negative”; (Test System: AMES SALMONELLA TYPHIMURIUM, Strain/Indicator: TA1538, Metabolic Activation: RAT, LIVER, S-9, SODIUM PHENOBARBITAL, Method: STANDARD PLATE) “inactive; negative”.
Take `O=C1c2cccc(O)c2C(=O)c2cccc(O)c21`: the mutagenic call by setting is: under setting [1], “active; positive”; under setting [2], “active; positive”; under setting [4], “inactive; negative”; under setting [5], “inactive; negative”; under setting [6], “inactive; negative”; under setting [7], “active; positive”. In addition, the mutagenic call is “active; positive” under setting [8]; “active; positive” (Test System: AMES SALMONELLA TYPHIMURIUM, Strain/Indicator: TA1537, Metabolic Activation: RAT, LIVER, S-9, Method: PREINCUBATION); “active; positive” under setting [9]; “inactive; negative” (Test System: AMES SALMONELLA TYPHIMURIUM, Strain/Indicator: TA1978, Metabolic Activation: NONE, Method: STANDARD PLATE); “inactive; negative” (Test System: AMES SALMONELLA TYPHIMURIUM, Strain/Indicator: TA1978, Metabolic Activation: RAT, LIVER, S-9, AROCLOR 1254, Method: STANDARD PLATE); “active; positive” (Test System: AMES SALMONELLA TYPHIMURIUM, Strain/Indicator: TA2637, Metabolic Activation: RAT, LIVER, S-9, 5,6-BENZOFLAVONE AND/OR SODIUM PHENOBARBITAL, Method: PREINCUBATION). In addition, the mutagenic call (Test System: AMES SALMONELLA TYPHIMURIUM, Strain/Indicator: TA2637, Metabolic Activation: RAT, LIVER, S-105, 5,6-BENZOFLAVONE AND/OR SODIUM PHENOBARBITAL, Method: PREINCUBATION) was “inactive; negative”.
On to `c1ccc2c(c1)ccc1ccc3c(c12)CCC3`, for which the mutagenic call under setting [4] is “active; positive”.
Regarding `Nc1ccc(O)c2c1C(=O)C=CC2=O`, the mutagenic call is, setting by setting: (Test System: Ames Salmonella typhimurium, Strain/Indicator: TA97, Metabolic Activation: None, Method: Preincubation) “inactive; negative”; (Test System: Ames Salmonella typhimurium, Strain/Indicator: TA97, Metabolic Activation: Rat, Liver, S9, Aroclor 1254, Method: Preincubation) “inactive; negative”; (Test System: Ames Salmonella typhimurium, Strain/Indicator: TA98, Metabolic Activation: None, Method: Preincubation) “active; positive”; (Test System: Ames Salmonella typhimurium, Strain/Indicator: TA98, Metabolic Activation: Rat, Liver, S9, Aroclor 1254, Method: Preincubation) “active; positive”; (Test System: Ames Salmonella typhimurium, Strain/Indicator: TA100, Metabolic Activation: None, Method: Preincubation) “inactive; negative”; (Test System: Ames Salmonella typhimurium, Strain/Indicator: TA100, Metabolic Activation: Rat, Liver, S9, Aroclor 1254, Method: Preincubation) “inactive; negative”. Besides, the mutagenic call is, setting by setting: (Test System: Ames Salmonella typhimurium, Strain/Indicator: TA102, Metabolic Activation: None, Method: Preincubation) “inactive; negative”; (Test System: Ames Salmonella typhimurium, Strain/Indicator: TA102, Metabolic Activation: Rat, Liver, S9, Aroclor 1254, Method: Preincubation) “active; positive”.
Consider `COc1cc2c(c3oc(=O)c4c(c13)CC[C@@H]4O)[C@@H]1C=CO[C@@H]1O2`, for which the mutagenic call is, setting by setting: (Test System: AMES SALMONELLA TYPHIMURIUM, Strain/Indicator: TA98, Metabolic Activation: RAT, LIVER, S-9, PHENOBARBITAL, Method: STANDARD PLATE) “active; positive”; (Test System: AMES SALMONELLA TYPHIMURIUM, Strain/Indicator: TA98, Metabolic Activation: RAT, LIVER, S-9, Method: STANDARD PLATE) “active; positive”; under setting [3], “inactive; negative”; under setting [4], “active; positive”; (Test System: UDS HUMAN FIBROBLASTS, Strain/Indicator: THY INCORP (NON-S-PHASE), Metabolic Activation: MOUSE, LIVER, S-9, Method: AUTORADIOGRAPHY) “active; positive”; (Test System: UDS HUMAN FIBROBLASTS, Strain/Indicator: THY INCORP (NON-S-PHASE), Metabolic Activation: RAT, LIVER, S-9, Method: AUTORADIOGRAPHY) “active; positive”.
